Experimental data published in PMC7321210, “Synthesis and Studies of the Inhibitory Effect of Hydroxylated Phenylpropanoids and Biphenols Derivatives on Tyrosinase and Laccase Enzymes” (Molecules, 2020).
“Also recorded” adds a separate entry of the source. Like-named read-outs stand apart in the source and are kept apart here.

Tests used:
PC12 cells [1] = assay: Viability of PC12 cells (MTT assay); format: cell-based, rat; details: for Toxic Concentration: cell viability < 80%, screening from 1 to 40 μM, 24 h; for toxicity to cells in words: significant (p < 0.05) decrease in viability vs control, from 5 μM up to 40 μM
Experimental: Initially, the inhibitor concentrations on PC12 cells, i.e., a rat pheochromocytoma-derived cell line, were screened to assess the possible cytotoxicity of the molecules under study [55].
(§1) 1.4 Viability and oxidative stress assays
(§2) PC12 cells, rat pheochromocytoma-derived cell line (ATCCCRL-1721) (passages 12–25) were maintained at 37
(§3) °C humidified air containing 5% CO2/95% atmospheric air and cultured in a 60 mm plastic culture plates with
(§4) Dulbecco’s modified Eagle’s medium supplemented with 10% horse serum, 5% fetal bovine serum and 1% of
(§5) penicillin/streptomycin. PC12 cells were treated for 24 h with the different compounds at different
concentrations ranging from 1 to 40 μM, to evaluate their eventual toxicity.
(§6) For all treatments cell viability was measured by means of MTT assay, as explained in
the following paragraph [17].
(§7) At the end of the exposure time of each experiment, the cell viability was assessed by means of MTT (3-(4,5-
(§8) dimethyl-thiazol-2-yl)-2,5-diphenyltetrazoliumbromide) assay. For this purpose, 1 mg/mL of MTT was added
(§9) to each sample and incubated for 4 h at 37 °C. Only viable cells are able to convert the soluble dye MTT into
(§10) the insoluble formazan crystals. After the incubation the MTT supernatant solution was removed, the cells
(§11) were washed in phosphate-buffered saline (PBS) and centrifuged while the pellet was dissolved in 2 mL of
(§12) isopropanol. After centrifugation of the solution at 4,000 rpm for 5 min, the absorbance for each sample was
(§13) assessed by means of a Bauty Diagnostic Microplate Reader at 578 nm. All experiments were performed in 24-
(§14) well plates (1 × 10^5 cells/mL/well) and repeated in triplicate.

PC12 cells [2] = assay: Protection of PC12 cells against H2O2-induced oxidative stress (MTT); format: cell-based, rat; details: for change of cell viability versus H2O2 alone, in words: co-treatment with 100 μM H2O2, compounds 1 up to 20 μM; for H2O2 Damage Protection: concentration with significant increase in viability vs H2O2, co-treatment with 100 μM H2O2, n.p.: no protection
Experimental: as §1, §2, §3, §4, §5
concentrations ranging from 1 to 40 μM, to evaluate their eventual toxicity. Then, in order to assess the
eventual compounds’ protection properties, PC12 cell treated with hydrogen peroxide (100μM) in association
with increasing concentration of the above-mentioned molecules, from 1 up to 20 μM.
as §6, §7, §8, §9, §10, §11, §12, §13, §14

mushroom tyrosinase = assay: Spectrophotometric (UV-Vis) detection of tyrosinase inhibitory activity; format: biochemical; details: for tyrosinase inhibition in words, tyrosine versus dopamine as substrate: UV-Vis, absorbance at 311 or 472 nm, Figure 3
Experimental: Kinetic assays were carried out by measuring the appearance of the product of either tyrosine or dopamine oxidation in the reaction medium at 311 and 472 nm, respectively, in a Shimadzu UV-2501 spectrophotometer (Shimadzu, Kyoto, Japan) equipped with the UV-Probe software, using a tandem quartz cuvette (Hellma, Milan, Italy) with a 2 × 4.375-mm path length [1, 2, 51]. Briefly, one side of the dual chamber cuvette was filled with 1000 µl of mushroom tyrosinase solution in 50 mM phosphate buffer, pH 6.8, 166 Units/mL using tyrosine as substrate or a 16.6 Units/mL when dopamine was used as substrate. The other chamber was loaded with 980 µL of substrate solution (180 µM tyrosine or 18 µM dopamine) in 20 mM phosphate buffer (pH 6.8) added of either 20 µL of DMSO (control) or 20 µL of a 2 mM (0.2 mM in dopamine experiments) solution of tested inhibitors in DMSO. A background spectrum in the 250–700 nm range was acquired with a 2.0 nm slit and fast speed before starting the reaction. Thereafter, the solutions in the two chambers were mixed by inversion and the UV-Vis spectra were acquired at increasing time intervals. Spectra were recorded at 311 or 472 nm in the presence of the inhibitor before mixing, and after either 24 or 10 min, using tyrosine or dopamine as a substrate, respectively. Data processing was performed with UV Probe and OriginPro 2019 (v. 9.60) softwares.
The mushroom tyrosinase was used as purchased without further purification. All solutions (tyrosinase, substrates and inhibitors) were filtered through a 0.45-μm syringe filter, aliquoted in Eppendorf tubes, and stored in freezer. The relative concentration was determined spectrophotometrically (εtyrosine 274.6 nm = 1420 M^−1·cm^−1; εdopamine at 280 nm = 2670 M^−1·cm^−1; εtyrosinase at 280 nm = 1426 M^−1·cm^−1).
Tyrosine was dissolved in 50 mM phosphate buffer, pH 6.8, final concentration 80 µM and with the added inhibitor (final concentration 20 µM) and tyrosinase (83 U/mL). The absorbance values were determined after 24 min of incubation. In the presence of dopamine, experiments were performed using 10-fold diluted solutions, and the absorbance values were determined after 10 min of incubation.

tyrosinase = tyrosinase (Agaricus bisporus, UniProt C7FF04); assay: Tyrosinase amperometric biosensor: IC50 and type of inhibition; format: biochemical; details: for Type of Inhibition Tyrosinase: Lineweaver-Burk plot, biosensor exposed 30 min to twice the lowest inhibiting concentration; for VMAX, substrate + inhibitor, TYR: dopamine calibration 0-140 mM after inhibitor exposure, n=4 biosensors;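 for all read-outs here: Carbon-composite amperometric tyrosinase biosensors with polyurethane-entrapped enzyme, calibrated in a three-electrode cell against Ag/AgCl at room temperature, before versus after inhibitor exposure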
Experimental: (§15) Inhibition types and IC50 were assessed by means of carbon-based amperometric biosensors [61, 62, 63, 64, 65], that are described in the Supplementary Materials. During the experiments carried out to determine the IC50 values, the lowest inhibitory concentration of each compound was also evaluated.
(§16) To verify the inhibition types, the following protocol was used. An initial calibration with dopamine, ranging between 0 and 140 mM, was performed in order to ascertain the values of VMAX and KM. Another calibration with the same protocol was performed after having exposed the biosensors to twice the lowest inhibiting concentration of each inhibitor, in order to ensure the safe inhibition of enzymatic activity. The biosensors were exposed to the inhibitor for 30 min and after having reached a stabile baseline, a calibration with dopamine, ranging between 0 and 140 mM, was performed and the value of VMAX and KM were calculated. The variations of both VMAX and KM were then analyzed by using the Lineweaver-Burk plot in order to identify the type of inhibition induced by the tested compound. The statistical difference in VMAX and KM, before exposing the biosensors to the inhibitor and then afterwards, was calculated by means of a paired t-test (p < 0.05).
(§17) The biosensors were prepared starting from a Teflon™-insulated silver wire (30 mm in length; Ø = 125 μm),
(§18) Briefly, 1 mm of the silver wire was exposed and then introduced into a silica
(§19) capillary cylinder (10 mm in length; I.D. Ø = 180 μm, Polymicro Technologies, Phoenix, AZ, USA) partly
(§20) packed with graphite-loaded (55% w/w) epoxy resin. By mixing 850 mg of graphite with 500 mg of Araldite-
(§21) M and 200 mg of hardener, a preliminary disc electrode of carbon-composite was fabricated (Ø = 180 μm; area:
(§22) 2.5 × 10−4 cm2) by filling the silica capillary tubing with the mixture. The silver wire assured a good electrical
(§23) contact. After 24 h at 40 °C, the electrode surface was cleaned using a high-speed drill (Dremel® 300) equipped
(§24) with an aluminum oxide grinding wheel. On top of the electrode surface a 1 µl of Tyrosinase or Laccase
(§25) solution was deposited. After the complete evaporation of water at room temperature, the biosensor was
(§26) quickly dipped in the polyurethane solution in order to entrap the enzyme on the electrode surface, and after
(§27) the complete evaporation of the solvent biosensors were put to stabilize in PBS pH=6.0 overnight.
(§28) The electrochemical measurements were performed at room temperature in a classical three-electrode
(§29) electrochemical cell consisting of four biosensors as working electrodes, a reference electrode (Ag/AgCl in
(§30) Constant potential amperometry (CPA) was used for in-vitro calibrations and for inhibition evaluation
(§31) experiments by applying a constant potential of -50 mV against an Ag/AgCl reference electrode, by means of
(§32) a four-channel potentiostat (eDAQ Quadstat, e- Corder 410, eDAQ Europe, Poland) and the software Chart (v
(§33) 5.5, eDAQ Europe, Poland). Thus, once the stabilization of the baseline of biosensors was reached, increasing
(§34) volumes of a stock solution of dopamine 1 M were added in order to obtain different concentrations ranging

laccase = assay: Laccase amperometric biosensor: IC50 and type of inhibition; format: biochemical; details: for Type of Inhibition Laccase: Lineweaver-Burk plot, biosensor exposed 30 min to twice the lowest inhibiting concentration; for VMAX, substrate + inhibitor, LAC: dopamine calibration 0-140 mM after inhibitor exposure, n=4 biosensors; for IC50: enzyme immobilized on biosensor, dopamine 50 µM, PBS pH 6.0
Experimental: as §15, §16, §17, §18, §19, §20, §21, §22, §23, §24, §25, §26, §27, §28, §29, §30, §31, §32, §33, §34

Tenebrio molitor = assay: Insecticidal properties on mealworm larvae; format: in vivo; details: for pest or weed control at 6400 µg/mL: Tenebrio molitor, topical, 120 h, read-out: Mortality% (Mean ± SD)
Experimental: Late instar larvae of Tenebrio molitor from a twenty-year-old insect culture at the Research Institute on Terrestrial Ecosystems (National Research Council, Sassari, Italy) were used in the experiments. The species was reared on bran flour, with the integration of fresh vegetables, at 25 °C, 65% relative humidity and 16:8 hours light/darkness.
One hundred medium instar larvae were isolated in a petri dishes (diam. 50 mm). They were then immersed for three seconds in 2.5 mL of an acetone solution (concentration 6.4 mg/mL w:v) of one of the fourteen compounds listed in Table 3. In addition, a treatment with the commercial formulation Dimilin (WP, 25% a.i. diflubenzuron) (acetone solution, 25.6 mg/mL w:v) and a negative control (no treatment) were tested.
After treatment, the larvae were subdivided into five 20-specimen groups and reared for five days in a small PVC box (150 L × 120 W × 50 H mm) with the same feed and conditions as standard rearing. Mortality was recorded daily.
The statistical analysis was conducted with the R software (R Development Core Team 2016). Mortality data, expressed as a percentage, were arcsin(√x)-transformed to satisfy assumptions of normality. ANOVA was performed by the Duncan test for mean separation.

[3] = larvae immersed three seconds in 2.5 mL acetone solution 6.4 mg/mL, reared five days, DFB as Dimilin WP 25% a.i., 25.6 mg/mL

Sequence of tyrosinase (C7FF04 2-392): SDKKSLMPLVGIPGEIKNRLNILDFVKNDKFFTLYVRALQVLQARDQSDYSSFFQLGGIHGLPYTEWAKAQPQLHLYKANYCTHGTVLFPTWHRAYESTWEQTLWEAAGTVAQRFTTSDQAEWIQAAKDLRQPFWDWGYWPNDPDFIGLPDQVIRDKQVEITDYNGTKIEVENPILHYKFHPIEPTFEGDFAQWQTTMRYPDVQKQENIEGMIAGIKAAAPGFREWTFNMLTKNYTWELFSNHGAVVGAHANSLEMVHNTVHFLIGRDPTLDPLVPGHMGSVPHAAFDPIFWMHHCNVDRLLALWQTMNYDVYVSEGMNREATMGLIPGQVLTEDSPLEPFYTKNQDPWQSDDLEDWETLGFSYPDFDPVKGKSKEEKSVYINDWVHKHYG

Row | Structure (SMILES) | Toxic Concentration (PC12 cells [1]) | change of cell viability versus H2O2 alone, in words (PC12 cells [2]) | H2O2 Damage Protection (PC12 cells [2]) | tyrosinase inhibition in words, tyrosine versus dopamine as substrate (mushroom tyrosinase) | Type of Inhibition Tyrosinase (tyrosinase) | VMAX, substrate + inhibitor, TYR (tyrosinase) [nA] | Type of Inhibition Laccase (laccase) | VMAX, substrate + inhibitor, LAC (laccase) [nA] | pest or weed control at 6400 µg/mL (Tenebrio molitor; [3]) [%] | insecticidal activity in words (Tenebrio molitor; mealworm larvae, compared with DFB) | IC50 (laccase) [nM] | pest or weed control at 6400 µg/mL (Tenebrio molitor) [%] | toxicity to cells in words (PC12 cells [1]) | % inhibition of tyrosinase (mushroom tyrosinase; comparable with both substrates, tyrosine 80 µM, inhibitor 20 µM, 24 min, dopamine 10-fold diluted solutions, 10 min)
1 | COc1cc(/C=C/C(=O)C[C@@H]2O[C@H](CO)[C@@H](O)[C@H](O)[C@H]2O)ccc1O [Compound 13] | >20 µM | significant decrease (p < 0.05 vs H2O2) at a concentration of 20 μM | n.p. | predominant inhibition of tyrosine oxidation | uncompetitive or mixed; also recorded: uncompetitive | 37.3 ±4.0 | competitive | 114.4±9.5 |  |  |  |  |  | 
2 | CC(C)=CCCC(C)(O)/C=C/c1cc(-c2ccc(O)c(/C=C/C(C)(O)CCC=C(C)C)c2)ccc1O (centres unmarked) [Compound 20, 3,3’-bis((E)-3-hydroxy-3,7-dimethylocta-1,6-dien-1-yl)-[1,1’-biphenyl]-4,4’-diol] |  |  |  | strongly inhibited the oxidation of dopamine compared to that of tyrosine; also recorded: selectivity towards the diphenolasic phase | competitively; also recorded: competitive | 77.4±4.3 | competitively; also recorded: competitive | 151.6±12.1 | ~65 | some insecticidal activity | 118 |  |  | 
3 | Oc1ccccc1-c1ccccc1O [Compound 4] |  |  |  |  |  |  |  |  |  |  |  | 3 ± 4.47 |  | 
4 | CCOC(=O)/C=C/c1cc(OC)c(O)c(-c2cc(/C=C/C(=O)OCC)cc(OC)c2O)c1 [Compound 17] | none |  | n.p. | strongly inhibited the oxidation of dopamine compared to that of tyrosine; also recorded: selectivity towards the diphenolasic phase | uncompetitive or mixed; also recorded: mixed | 73.7±26 | competitive | 96.5±8.3 |  |  | 184 |  |  | 
5 | COc1cc(/C=C/C(=O)c2cc(OC)c(OC)c(-c3cc(C(=O)/C=C/c4ccc(O)c(OC)c4)cc(OC)c3OC)c2)ccc1O [Compound 14] | >5 µM |  |  | predominant inhibition of tyrosine oxidation | mixed | 48.8±4.67 | mixed | 110.9±2.4 | 0 |  |  |  | toxic to cells | 
6 | COc1cc(C(=O)/C=C/c2ccc(OC)c(OC)c2)ccc1O [Compound 12] | >1 µM |  |  | predominant inhibition of tyrosine oxidation | noncompetitive | 63.0±1.962 | competitive | 49.5±6.1 | 0 |  | 1040 |  | toxic to cells | 
7 | COc1cc(C(=O)/C=C/c2cc(OC)c(OC)c(-c3cc(/C=C/C(=O)c4ccc(O)c(OC)c4)cc(OC)c3OC)c2)ccc1O [Compound 15] | >5 µM |  |  | predominant inhibition of tyrosine oxidation | competitively; also recorded: competitive | 54.3±2.6 | competitively; also recorded: competitive | 93.8±2.9 | 0 |  | 209 |  | toxic to cells | 
8 | COc1cc(/C=C/C(=O)c2ccc(OC)c(OC)c2)ccc1O [Compound 11] | >10 µM |  |  | predominant inhibition of tyrosine oxidation | competitive | 33.0±1.1 | mixed | 91.0±9.2 | 4 ± 2.24 |  | 62 |  | toxic to cells | 
9 | CC(=O)CCc1ccc(O)c(O)c1 [Compound 9] | >10 µM | significant decrease (p < 0.05 vs H2O2) at a concentration of 20 μM | n.p. | strongly inhibited the oxidation of dopamine compared to that of tyrosine; also recorded: selectivity towards the diphenolasic phase | competitively; also recorded: competitive | 183.2±11.1 | competitively; also recorded: competitive | 90.5±7.4 | 4 ± 6.51 |  | 2240 |  |  | 
10 | COc1cc(C=CC(C)=O)ccc1O [Compound 8] | 40 µM | significant decrease (p < 0.05 vs H2O2) in cells viability at all concentrations tested | n.p. | strongly inhibited the oxidation of dopamine compared to that of tyrosine; also recorded: selectivity towards the diphenolasic phase |  |  |  | 78.7±8.8 | 10 ± 7.07 |  | 218 |  |  | 
11 | O=C(NC(=O)c1c(F)cccc1F)Nc1ccc(Cl)cc1 [DFB, N-[(4-chlorophenyl)carbamoyl]-2,6-difluorobenzamide, reference compound] |  |  |  |  |  |  |  |  |  |  |  | 97 ± 4.47 |  | 
12 | COc1ccc(O)c(C(=O)/C=C/c2cc(OC)c(OC)c(-c3cc(/C=C/C(=O)c4cc(OC)ccc4O)cc(OC)c3OC)c2)c1 [Compound 16] | >5 µM |  |  |  | competitively; also recorded: competitive | 22.2±0.6 | competitively; also recorded: competitive | 139.9±6.4 |  |  | 987 |  | toxic to cells | about 70%
